# Reference: patent EP1105728B1, “MODULATING MULTIPLE LINEAGE KINASE PROTEINS” (CEPHALON, INC., priority 1998, dated 2000)
# “And” between values parts separate entries of the source, which are not always exact repeats. Identical values can stand only once. Marks after values point to notes of the source that are not given here.
# What was measured:
# [1] = tested on: motoneurons; assay: Survival of rat spinal cord cultures enriched for motoneurons (calcein AM); format: cell-based; settings: data not shown
# Protocol: Spinal cords were dissected from Sprague-Dawley rat fetuses (Charles River Laboratories, Wilmington. MA) of embryonic age (E) 14.5-15. […] Cells were seeded onto 96-well plates previously coated with poly-1-omithine and laminin (5 ug/ml each) at a density of 6 x 10^4 cells/cm^2 in chemically defined serum-free N2 medium (Bottenstein, et al., 1979, supra). In order to separate attachment from survival effects, addition of compounds to cultures was made after an initial attachment period of 1-3 h. Neuronal survival was assessed after 4 d by using calcein AM (Molecular Probes, Eugene, OR) in a fluorometric viability assay (Bozyczko-Coyne, et al., 1993, supra). Microscopic counts of neurons correlated directly with relative fluorescence values. In brief, culture medium was serially diluted in DPBS (Dulbeccos phosphate buffered saline) and a final concentration of 6 uM calcein AM stock was then added to each 96-well. The plates were incubated for 30 min at 37°C, followed by serial dilution washes in DPBS. The fluorescent signal was read using a plate-reading fluorimeter from Millipore (Cytofluor 2350) at excitation=485 nm and emission = 538 nm. […] Linearity of the fluorescence signal was verified for the concentration and incubation time for the range of cell densities in these experiments. […]
# [2] = tested on: sympathetic ganglion neurons (SG); assay: Survival of chick embryonic sympathetic ganglion neurons; format: cell-based
# Protocol: Paravertebral sympathetic ganglia (SG; embryonal day 12 (E12)), dorsal root ganglia (DRG;E9), and ciliary ganglia (CG;E8) were dissected from chick embryos at the indicated embryonic day as described in Lindsay, et al., Dev. Biol., 1985, 112, 319-328, which is incorporated herein by reference in its entirety. After trypsinization and dissociation, the nerve cell suspensions were plated onto polyomithine-laminin-coated culture dishes in Ham's F14 culture medium, supplemented with 10% horse serum. Immediately after plating, survival factors were added at the following concentrations: Nerve growth factor (NGF), 20 ng/ml; ciliary neutrophic factor (CNTF), 10 ng/ml. The cultures were maintained at 37° and 5% CO2 in a humidified environment.
# Neurons were plated in 35 mm culture dishes with grids (Nunc). Selected areas of each dish comprising together about 10% of the surface scanned for the presence of phase bright cells immediately after plating and again after 48 h to assess survival percentages. Cell survival was confirmed by vital staining with trypan blue (not shown).
# [3] = tested on: intact embryonic dorsal root ganglia; assay: Neurite outgrowth from intact dorsal root ganglia; format: cell-based, chick; settings: 250 nM Compound III-3 or 20 ng/ml NGF; 48 h
# Protocol: Ganglia were placed in 96 well plates previously coated with poly-1-omithine and laminin (5 µg each/ml phosphate buffered saline) in serum-free N2 medium (Bottenstein, et al., Proc. Natl. Acad. Sci. USA, 1979, 76, 514-517, which is incorporated herein by reference in its entirety) containing 0.05% bovine serum albumin (BSA) and maintained for 48 h at 37° and 5% CO2 in a humidified environment. Treated ganglia received either 250 nM Compound III-3 or 20 ng/ml NGF 2 h after plating.
# [4] = tested on: hypoglossal motor neurons; assay: Axotomy-induced motor neuronal dedifferentiation in the adult rat (hypoglossal nerve); format: in vivo; settings: for ChAT-Positive Motor Neurons Average/Group / ChAT-Positive Motor Neurons Experimental/Control / ChAT-Positive Motor Neurons %: 7 days; for ChAT-Positive Motor Neurons Experimental/Control: counts ipsilateral/contralateral; for ChAT-Positive Motor Neurons Experimental/Control / ChAT-Positive Motor Neurons %: per animal
# Protocol: The left hypoglossal nerve was transected in the neck of adult female Sprague-Dawley rats (120-180 g) under Neumbutol anesthesia, and 50 µl of Compound III-3 or its vehicle (5% Solutol™ HS 15) were applied to a piece of Gelfoam ™ (AJ Buck, Owings Mills, MD), then wrapped around the proximal end of the transected nerve. After 7 days, the animals were anesthetized and perfused with 4% paraformaldehyde in Sorenson's buffer, 0.07 M phosphate, pH 7.2. The brain stem was removed and 40- µm-thick serial coronal sections were cut on a cryostat (Chiu, et al., NeuroReport, 1994, 5, 693-696, which is incorporated herein by reference in its entirety). Every fifth section was processed for ChAT immunohistochemistry as previously described (Chiu, et al., J. Comp. Neurol., 1993, 328, 351-363, which is incorporated herein by reference in its entirety) using a 1:350 dilution of an anti-ChAT monoclonal antibody obtained from Chemicon. Cells that stained clearly above background were counted in stained sections; the number of enumerated cells was expressed as the ratio of the number of ChAT-immunoreactive cells on the axotomized side of the hypoglossal nucleus versus the number of immunoreactive cells on the control (uninjured) side.
smiles,measurement,setting,value
CCSCc1ccc2c(c1)c1c3c(c4c5cc(CSCC)ccc5n5c4c1n2C1CC(O)(C(=O)OC)C5(C)O1)CNC3=O (stereo not shown) [III-3],potency in mediating survival in motor neuron-enriched cultures relative to K-252a,[1],approximately fivefold
same,concentration at which the survival effect reached a plateau,[2]; 10% serum (Fig. 16),around 1 µM
same,SG neurons alive,"[2]; after 48 h, Compound III-3 1 µM, NGF 20 ng/ml, 10% serum",94%
same,SG survival,[2]; after four days,83%
same,neurite outgrowth from intact dorsal root ganglia,[3],Neurites grew
same,ChAT-Positive Motor Neurons Average/Group,[4]; 3.6 µg in gel foam,12.84*
same,ChAT-Positive Motor Neurons Experimental/Control,[4]; 3.6 µg in gel foam,55/420 and 72/572
same,ChAT-Positive Motor Neurons %,[4]; 3.6 µg in gel foam,13.10% and 12.59%
same,ChAT-Positive Motor Neurons Average/Group,[4]; 25 µg in gel foam,19.01*
same,ChAT-Positive Motor Neurons Experimental/Control,[4]; 25 µg in gel foam,95/597 and 142/642
same,ChAT-Positive Motor Neurons %,[4]; 25 µg in gel foam,15.91% and 22.12%
same,ChAT-Positive Motor Neurons Average/Group,[4]; 50 µg in gel foam,41.34*
same,ChAT-Positive Motor Neurons Experimental/Control,[4]; 50 µg in gel foam,278/637 and 188/484
same,ChAT-Positive Motor Neurons %,[4]; 50 µg in gel foam,43.85% and 38.84%
same,ChAT-Positive Motor Neurons Average/Group,[4]; 100 µg in gel foam,32.61*
same,ChAT-Positive Motor Neurons Experimental/Control,[4]; 100 µg in gel foam,465/920 and 235/784 and 178/770 and 182/679
same,ChAT-Positive Motor Neurons %,[4]; 100 µg in gel foam,50.54% and 29.98% and 23.12% and 26.80%
same,ChAT-Positive Motor Neurons Average/Group,[4]; 200 µg in gel foam,24.96*
same,ChAT-Positive Motor Neurons Experimental/Control,[4]; 200 µg in gel foam,99/461 and 159/559
same,ChAT-Positive Motor Neurons %,[4]; 200 µg in gel foam,21.48% and 28.44%
same,"weight loss, mortality, gross tissue damage","[4]; any doses tested, hypoglossal axotomy model","no associated weight loss, mortality, or gross tissue damage"
same,"more ChAT-immunoreactive motor neurons compared to the axotomized, untreated control","[4]; maximally effective dose (50 µg), 7 days postaxotomy",40%
